Tested on: MV-4-11 cells
Assay: Gene expression microarray analysis (Affymetrix PrimeView) and GSEA
Format: cell-based, human
Parameters: RFU PODN (11730768_x_at) / Fold change /veh PODN (11730768_x_at) / RFU LINC00158 (11744669_a_at) / Fold change /veh LINC00158 (11744669_a_at) / RFU DUSP10 (11751237_a_at) / Fold change /veh DUSP10 (11751237_a_at) / RFU ID3 (11757404_x_at) / Fold change /veh ID3 (11757404_x_at) / RFU PLEKHG5 (11737974_s_at) / Fold change /veh PLEKHG5 (11737974_s_at) / RFU LRRC4B (11730491_at) / Fold change /veh LRRC4B (11730491_at) / RFU GIMAP4 (11747438_a_at) / Fold change /veh GIMAP4 (11747438_a_at) / RFU KRT8 (11758183_x_at) / Fold change /veh KRT8 (11758183_x_at) / RFU CNN1 (11734310_a_at) / Fold change /veh CNN1 (11734310_a_at) / RFU VPS37D (11726825_at) / Fold change /veh VPS37D (11726825_at) / RFU C10orf10 (11716522_x_at) / Fold change /veh C10orf10 (11716522_x_at) / RFU KIR2DL2 /// KIR2DL4 /// KIR2DL5A /// KIR2DL5B /// KIR2DS1 /// KIR2DS2 /// KIR2DS3 /// KIR2DS4 /// KIR3DL3 /// KIR3DL3 /// KIR3DS1 (11738374_at) / Fold change /veh KIR2DL2 /// KIR2DL4 /// KIR2DL5A /// KIR2DL5B /// KIR2DS1 /// KIR2DS2 /// KIR2DS3 /// KIR2DS4 /// KIR3DL3 /// KIR3DL3 /// KIR3DS1 (11738374_at) / RFU C1QL1 (11718748_at) / Fold change /veh C1QL1 (11718748_at) / RFU TMPRSS4 (11747572_a_at) / Fold change /veh TMPRSS4 (11747572_a_at) / RFU HAMP (11756126_x_at) / Fold change /veh HAMP (11756126_x_at) / RFU RNFT2 (11725882_a_at) / Fold change /veh RNFT2 (11725882_a_at) / RFU NR4A2 (11747474_a_at) / Fold change /veh NR4A2 (11747474_a_at) / RFU ABCC12 (11746883_a_at) / Fold change /veh ABCC12 (11746883_a_at) / RFU TMEM136 (11760407_x_at) / Fold change /veh TMEM136 (11760407_x_at) / RFU CLDN22 /// WWC2 (11732394_at) / Fold change /veh CLDN22 /// WWC2 (11732394_at) / RFU HLA-DPB1 (11760878_x_at) / Fold change /veh HLA-DPB1 (11760878_x_at) / RFU SPINT1 (11716480_a_at) / Fold change /veh SPINT1 (11716480_a_at) / RFU GAP43 (11754022_s_at) / Fold change /veh GAP43 (11754022_s_at) / RFU A4GNT (11735810_at) / Fold change /veh A4GNT (11735810_at) / RFU PRB3 (11715151_x_at) / Fold change /veh PRB3 (11715151_x_at) / RFU TUBB4B (11761932_at) / Fold change /veh TUBB4B (11761932_at) / RFU CAPN14 (11732068_a_at) / Fold change /veh CAPN14 (11732068_a_at) / RFU TMCC2 (11721928_a_at) / Fold change /veh TMCC2 (11721928_a_at) / RFU IRGQ (11745062_a_at) / Fold change /veh IRGQ (11745062_a_at) / RFU FAM174B (11720279_a_at) / Fold change /veh FAM174B (11720279_a_at) / RFU TMPRSS4 (11748680_a_at) / Fold change /veh TMPRSS4 (11748680_a_at) / RFU FAM212B (11763350_a_at) / Fold change /veh FAM212B (11763350_a_at) / RFU PLEKHG5 (11743358_a_at) / Fold change /veh PLEKHG5 (11743358_a_at) / RFU ZSCAN30 (11745921_a_at) / Fold change /veh ZSCAN30 (11745921_a_at) / RFU CMKLR1 (11741424_a_at) / Fold change /veh CMKLR1 (11741424_a_at) / RFU LOC101060620 /// MAPK8IP1 (11723275_at) / Fold change /veh LOC101060620 /// MAPK8IP1 (11723275_at) / RFU SPTSSB (11747773_x_at) / Fold change /veh SPTSSB (11747773_x_at) / RFU PRSS12 (11739890_at) / Fold change /veh PRSS12 (11739890_at) / RFU BIN1 (11741810_x_at) / Fold change /veh BIN1 (11741810_x_at) / RFU WNT11 (11732464_a_at) / Fold change /veh WNT11 (11732464_a_at) / RFU C10orf10 (11716521_a_at) / Fold change /veh C10orf10 (11716521_a_at) / RFU C5orf56 (11738089_at) / Fold change /veh C5orf56 (11738089_at) / RFU CYB561 (11721691_x_at) / Fold change /veh CYB561 (11721691_x_at) / RFU ANKRD19P (11752326_a_at) / Fold change /veh ANKRD19P (11752326_a_at) / RFU OR2T12 /// OR2T33 /// OR2T8 (11738714_s_at) / Fold change /veh OR2T12 /// OR2T33 /// OR2T8 (11738714_s_at) / RFU VCAN (11748164_a_at) / Fold change /veh VCAN (11748164_a_at) / RFU JSRP1 (11732532_at) / Fold change /veh JSRP1 (11732532_at) / RFU KRTAP10-11 (11738290_x_at) / Fold change /veh KRTAP10-11 (11738290_x_at) / RFU MYO3A (11730013_a_at) / Fold change /veh MYO3A (11730013_a_at) / RFU EBF3 (11725865_a_at) / Fold change /veh EBF3 (11725865_a_at) / RFU CAMK2N1 (11719241_x_at) / Fold change /veh CAMK2N1 (11719241_x_at) / RFU C5orf56 (11738088_a_at) / Fold change /veh C5orf56 (11738088_a_at) / RFU OLFML3 (11715873_a_at) / Fold change /veh OLFML3 (11715873_a_at) / RFU LOC100653217 /// NTM (11731650_a_at) / Fold change /veh LOC100653217 /// NTM (11731650_a_at) / RFU MAPK11 (11762145_a_at) / Fold change /veh MAPK11 (11762145_a_at) / RFU FIZ1 (11724087_x_at) / Fold change /veh FIZ1 (11724087_x_at) / RFU OASL (11726364_x_at) / Fold change /veh OASL (11726364_x_at) / RFU SOX15 (11748057_x_at) / Fold change /veh SOX15 (11748057_x_at) / RFU CD79A (11719716_a_at) / Fold change /veh CD79A (11719716_a_at) / RFU HIST1H1D (11736915_at) / Fold change /veh HIST1H1D (11736915_at) / RFU CASKIN2 (11723855_a_at) / Fold change /veh CASKIN2 (11723855_a_at) / RFU LOC730098 (11760151_x_at) / Fold change /veh LOC730098 (11760151_x_at) / RFU OR4N2 (11742367_at) / Fold change /veh OR4N2 (11742367_at) / RFU PRRT2 (11749266_a_at) / Fold change /veh PRRT2 (11749266_a_at) / RFU SNX32 (11753110_a_at) / Fold change /veh SNX32 (11753110_a_at) / RFU CDHR5 (11726645_a_at) / Fold change /veh CDHR5 (11726645_a_at) / RFU RCAN1 (11760418_a_at) / Fold change /veh RCAN1 (11760418_a_at) / RFU FAM167A (11723789_a_at) / Fold change /veh FAM167A (11723789_a_at) / RFU FAM26E (11764081_at) / Fold change /veh FAM26E (11764081_at) / RFU ISYNA1 (11749810_s_at) / Fold change /veh ISYNA1 (11749810_s_at) / RFU ACY1 (11761880_at) / Fold change /veh ACY1 (11761880_at) / RFU 11764098_at / Fold change /veh 11764098_at / RFU SAMD14 (11745864_x_at) / Fold change /veh SAMD14 (11745864_x_at) / RFU NPB (11741838_a_at) / Fold change /veh NPB (11741838_a_at) / RFU TMPRSS6 (11731388_a_at) / Fold change /veh TMPRSS6 (11731388_a_at) / RFU KRTAP10-2 (11738614_at) / Fold change /veh KRTAP10-2 (11738614_at) / RFU ARHGAP8 /// PRR5-ARHGAP8 (11727945_x_at) / Fold change /veh ARHGAP8 /// PRR5-ARHGAP8 (11727945_x_at) / RFU KRTAP5-7 /// NADSYN1 (11734609_at) / Fold change /veh KRTAP5-7 /// NADSYN1 (11734609_at) / RFU RASL12 (11751679_a_at) / Fold change /veh RASL12 (11751679_a_at) / RFU CDKN2B (11736163_a_at) / Fold change /veh CDKN2B (11736163_a_at) / RFU PRF1 (11729649_at) / Fold change /veh PRF1 (11729649_at) / RFU, ZNF638 /// ZNF638-IT1 / Fold change vs veh, ZNF638 /// ZNF638-IT1 / RFU, PANK3 / Fold change vs veh, PANK3 / RFU, SH3YL1 / Fold change vs veh, SH3YL1 / RFU, ZEB2 / Fold change vs veh, ZEB2 / RFU, NRIP1 / Fold change vs veh, NRIP1 / RFU, PTTG1IP / Fold change vs veh, PTTG1IP / RFU, CAPN2 / Fold change vs veh, CAPN2 / RFU, MED14 / Fold change vs veh, MED14 / RFU, SNORA58 / Fold change vs veh, SNORA58 / RFU, C1orf63 / Fold change vs veh, C1orf63 / RFU, LRRFIP1 / Fold change vs veh, LRRFIP1 / RFU, NDUFAF7 / Fold change vs veh, NDUFAF7 / RFU, SLC12A2 / Fold change vs veh, SLC12A2 / RFU, IBTK / Fold change vs veh, IBTK / RFU, ESF1 / Fold change vs veh, ESF1 / Fold change vs veh, TMEM50B / RFU, TAOK1 / Fold change vs veh, TAOK1 / RFU, ACBD3 / Fold change vs veh, ACBD3 / RFU, TMA16 / Fold change vs veh, TMA16 / RFU, RWDD3 / Fold change vs veh, RWDD3 / RFU, BCAT1 / Fold change vs veh, BCAT1 / RFU, EDEM3 / Fold change vs veh, EDEM3 / RFU, TMEM33 / Fold change vs veh, TMEM33 / RFU, WDR75 / Fold change vs veh, WDR75 / RFU, AHCTF1 / Fold change vs veh, AHCTF1 / RFU, TFRC / Fold change vs veh, TFRC / RFU, ZDHHC17 / Fold change vs veh, ZDHHC17 / RFU, NOM1 / Fold change vs veh, NOM1 / RFU, ARL8B / Fold change vs veh, ARL8B / RFU, ZBTB11 / Fold change vs veh, ZBTB11 / RFU, TAMM41 / Fold change vs veh, TAMM41 / RFU, KIAA1704 /// LOC100996395 / Fold change vs veh, KIAA1704 /// LOC100996395 / RFU, ING1 / Fold change vs veh, ING1 / RFU, TRMT61B / Fold change vs veh, TRMT61B / RFU, FUBP3 / Fold change vs veh, FUBP3 / RFU, TP53 / Fold change vs veh, TP53 / RFU, TNKS2 / Fold change vs veh, TNKS2 / RFU, ZFP14 / Fold change vs veh, ZFP14 / RFU, ACTR2 / Fold change vs veh, ACTR2 / RFU, PPP3R1 / Fold change vs veh, PPP3R1 / RFU, PIK3R1 / Fold change vs veh, PIK3R1 / RFU, HNRNPA1 / Fold change vs veh, HNRNPA1 / RFU, RNF170 / Fold change vs veh, RNF170 / RFU, ZNF28 / Fold change vs veh, ZNF28 / RFU, RNGTT / Fold change vs veh, RNGTT / RFU, OGT / Fold change vs veh, OGT / RFU, BRD1 / Fold change vs veh, BRD1 / RFU, MARS / Fold change vs veh, MARS / RFU, ZNF655 / Fold change vs veh, ZNF655 / RFU, FAHD1 / Fold change vs veh, FAHD1 / RFU, BDP1 / Fold change vs veh, BDP1 / RFU, LRRCC1 / Fold change vs veh, LRRCC1 / RFU, ARID1A / Fold change vs veh, ARID1A / RFU, ZNF146 / Fold change vs veh, ZNF146 / RFU, ZNF330 / Fold change vs veh, ZNF330 / RFU, GPN3 / Fold change vs veh, GPN3 / RFU, C9orf123 / Fold change vs veh, C9orf123 / RFU, N4BP2L2 / Fold change vs veh, N4BP2L2 / RFU, ARFIP1 / Fold change vs veh, ARFIP1 / RFU, FAM179B / Fold change vs veh, FAM179B / RFU, BCL10 / Fold change vs veh, BCL10 / RFU, UHRF1BP1L / Fold change vs veh, UHRF1BP1L / RFU, BET1 / Fold change vs veh, BET1 / RFU, CNOT2 / Fold change vs veh, CNOT2 / RFU, ZNF268 / Fold change vs veh, ZNF268 / Fold change vs veh, ZNF507 / RFU, DGCR2 / Fold change vs veh, DGCR2 / RFU, WDSUB1 / Fold change vs veh, WDSUB1 / Fold change vs veh, HSP90B1 /// MIR3652 / RFU, ADSS / Fold change vs veh, ADSS / RFU, GK / Fold change vs veh, GK / RFU, ZNF148 / Fold change vs veh, ZNF148 / RFU, TAF9 / Fold change vs veh, TAF9 / RFU, SLC1A5 / Fold change vs veh, SLC1A5 / RFU, SLMO2 / Fold change vs veh, SLMO2 / RFU, ABCC4 / Fold change vs veh, ABCC4 / RFU, LOC101060439 /// RAP1B / Fold change vs veh, LOC101060439 /// RAP1B / RFU, RFX7 / Fold change vs veh, RFX7 / RFU, GTPBP10 / Fold change vs veh, GTPBP10 / RFU, CNEP1R1 / Fold change vs veh, CNEP1R1 / RFU, BIVM-ERCC5 /// ERCC5 / Fold change vs veh, BIVM-ERCC5 /// ERCC5 / RFU, ILF3 / Fold change vs veh, ILF3 / RFU 11762660_at / Fold change /veh 11762660_at / RFU VCAN (11757783_s_at) / Fold change /veh VCAN (11757783_s_at) / RFU DDX43 (11728927_at) / Fold change /veh DDX43 (11728927_at) / RFU KRT8 (11758188_x_at) / Fold change /veh KRT8 (11758188_x_at) / RFU NKD1 (11759106_at) / Fold change /veh NKD1 (11759106_at) / RFU SRD5A1 (11742802_a_at) / Fold change /veh SRD5A1 (11742802_a_at) / RFU TPSAB1 /// TPSB2 (11721975_s_at) / Fold change /veh TPSAB1 /// TPSB2 (11721975_s_at) / RFU GSTM3 (11746129_a_at) / Fold change /veh GSTM3 (11746129_a_at) / RFU IL23R (11737362_x_at) / Fold change /veh IL23R (11737362_x_at) / RFU TMEM51 (11727254_a_at) / Fold change /veh TMEM51 (11727254_a_at) / RFU PIWIL2 (11732686_x_at) / Fold change /veh PIWIL2 (11732686_x_at) / RFU ORM1 (11744905_x_at) / Fold change /veh ORM1 (11744905_x_at) / RFU CCDC152 (11743942_at) / Fold change /veh CCDC152 (11743942_at) / RFU ECM1 (11717891_a_at) / Fold change /veh ECM1 (11717891_a_at) / RFU IL23R (11748794_a_at) / Fold change /veh IL23R (11748794_a_at) / RFU TNFAIP8L3 (11732012_x_at) / Fold change /veh TNFAIP8L3 (11732012_x_at) / RFU MBOAT4 (11741988_at) / Fold change /veh MBOAT4 (11741988_at) / RFU 11764193_at / Fold change /veh 11764193_at / RFU TMEM53 (11763286_at) / Fold change /veh TMEM53 (11763286_at) / RFU MAGEB2 (11727129_at) / Fold change /veh MAGEB2 (11727129_at) / RFU TMEM200A (11744735_a_at) / Fold change /veh TMEM200A (11744735_a_at) / RFU CCDC152 (11751479_a_at) / Fold change /veh CCDC152 (11751479_a_at) / RFU FAM211A (11726209_a_at) / Fold change /veh FAM211A (11726209_a_at) / RFU RGS16 (11746705_a_at) / Fold change /veh RGS16 (11746705_a_at) / RFU VCAN (11755009_s_at) / Fold change /veh VCAN (11755009_s_at) / RFU RHOB (11743442_s_at) / Fold change /veh RHOB (11743442_s_at) / RFU RGS16 (11720943_a_at) / Fold change /veh RGS16 (11720943_a_at) / RFU RGS16 (11720944_at) / Fold change /veh RGS16 (11720944_at) / RFU, VPS4B / Fold change vs veh, VPS4B / RFU, CREB1 / Fold change vs veh, CREB1 / RFU, DNAJC13 / Fold change vs veh, DNAJC13 / RFU, GNAQ / Fold change vs veh, GNAQ / RFU, CDK5R1 / Fold change vs veh, CDK5R1 / RFU, ZRANB3 / Fold change vs veh, ZRANB3 / RFU, CUL4A / Fold change vs veh, CUL4A / RFU, CCNY / Fold change vs veh, CCNY / RFU, UFL1 / Fold change vs veh, UFL1 / RFU, COG3 / Fold change vs veh, COG3 / RFU, DIAPH2 / Fold change vs veh, DIAPH2 / RFU, SKA2 / Fold change vs veh, SKA2 / RFU, AFF3 / Fold change vs veh, AFF3 / RFU, LMF1 / Fold change vs veh, LMF1 / RFU, IPO11 / Fold change vs veh, IPO11 / RFU, DFFB / Fold change vs veh, DFFB / RFU, FOXP1 / Fold change vs veh, FOXP1 / RFU, CARD8 / Fold change vs veh, CARD8 / RFU, STRN3 / Fold change vs veh, STRN3 / RFU, ADK / Fold change vs veh, ADK / RFU, RASSF2 / Fold change vs veh, RASSF2 / RFU, WIPF1 / Fold change vs veh, WIPF1 / RFU, LARP1B / Fold change vs veh, LARP1B / RFU, RASA1 / Fold change vs veh, RASA1 / RFU, RB1 / Fold change vs veh, RB1 / RFU, PPFIA1 / Fold change vs veh, PPFIA1 / RFU, MAT2A / Fold change vs veh, MAT2A / RFU, CCT5 / Fold change vs veh, CCT5 / RFU, WDR92 / Fold change vs veh, WDR92 / RFU, CUX1 / Fold change vs veh, CUX1 / RFU, TTC7A / Fold change vs veh, TTC7A / RFU, TMEM135 / Fold change vs veh, TMEM135 / RFU, DEPTOR / Fold change vs veh, DEPTOR / RFU, CPM / Fold change vs veh, CPM / RFU, DNAJB6 / Fold change vs veh, DNAJB6 / RFU, CACNA2D3 / Fold change vs veh, CACNA2D3 / RFU, DTX4 / Fold change vs veh, DTX4 / RFU, TFCP2 / Fold change vs veh, TFCP2 / RFU, GMCL1 /// GMCL1P1 / Fold change vs veh, GMCL1 /// GMCL1P1 / RFU, AEBP2 / Fold change vs veh, AEBP2 / RFU, SNHG1 /// SNORD22 /// SNORD25 /// SNORD26 /// SNORD27 /// SNORD28 /// SNORD29 /// SNORD31 / Fold change vs veh, SNHG1 /// SNORD22 /// SNORD25 /// SNORD26 /// SNORD27 /// SNORD28 /// SNORD29 /// SNORD31 / Fold change (Aza/veh), C12orf56 (ProbeSet 11735607_a_at) / Fold change (ACY-1035/veh), C12orf56 (ProbeSet 11735607_a_at) / Fold change (Aza/veh), FGFR1OP (ProbeSet 11751329_s_at) / Fold change (ACY-1035/veh), FGFR1OP (ProbeSet 11751329_s_at) / Fold change (Aza/veh), VPS36 (ProbeSet 11739960_a_at) / Fold change (ACY-1035/veh), VPS36 (ProbeSet 11739960_a_at) / RFU SYPL1 (11715823_x_at) / Fold change /veh SYPL1 (11715823_x_at) / RFU IGFBP7 (11715501_s_at) / Fold change /veh IGFBP7 (11715501_s_at) / RFU REEP3 (11722064_at) / Fold change /veh REEP3 (11722064_at) / RFU IGLL1 (11728026_x_at) / Fold change /veh IGLL1 (11728026_x_at): dose or concentration left out as unconfirmed
Conditions: MV-4-11 cells, 48 hours

SMILES: Nc1ccc(-c2cccs2)cc1NC(=O)c1ccc2c(c1)cc(C1CC1)n2CCN1CCOCC1 [ACY-1035]
- Fold change /veh IL23R (11748794_a_at): 0.98

Source: PMC5218480 (PLoS ONE, 2017)
